In publication PMC6076408, “Differential modulation of human GABAC-ρ1 receptor by sulfur-containing compounds structurally related to taurine” (BMC Neuroscience, 2018):

Assays:
Format in all cases: cell-based
human GABAC-ρ1 receptor [1] = target: T1, human GABAC-ρ1 receptor (Homo sapiens, UniProt P24046); test: Voltage-clamp: modulation of GABA-induced currents by co-applied SCC-tau; details: for EC50: EC50 (potentiation of GABA current); for IC50: read-out: IC50 (decrease of GABA-activated current)
T1 construct: expressed in transfected cells; host or cells: Xenopus laevis oocytes (mRNA injection)
Method: (§1) All the animals were handled in accordance with guidelines of the National Institutes of Health Guide for Care and Use of Laboratory Animals and with the approval of the Institutional Animal Care and Use Committee of the National University of Mexico. We used Ethyl 3-aminobenzoate methanesulfonate (MS-222) at 0.17% for 30 min, to anesthetize the Xenopus laevis frogs. The oocytes were manually removed and enzymatically defolliculated at room temperature using collagenase type I (0.3 μg/μl) for 45 min. Later, oocytes were kept in Barth’s medium (in mM): 88, NaCl; 1, KCl; 0.33, […]; 0.41, CaCl2; 0.82, MgSO4; 2.4, NaHCO3; 5, HEPES; pH 7.4 and 0.1 mg/ml gentamicin sulfate. After 24 h, 0.5 μg/μl of human GABAC-ρ1R mRNA was injected in vegetal hemisphere of the oocyte, and electrophysiological recordings were obtained 2–3 days after injection.
(§2) Membrane currents elicited by GABA and SCC-tau were recorded using the two-microelectrode voltage-clamp technique. Oocytes were placed in a chamber, with a volume of 500 μl, and impaled with two microelectrodes previously filled with 3 M KCl (0.5–2.5 MΩ) and clamped at − 60 mV. […] All recordings were done at 20–23 °C in a chamber continuously perfused at 5–10 ml/min of Ringer solution (in mM): 115, NaCl; 2, KCl; 1.8, CaCl2; 5, HEPES, pH 7.4. All drugs were purchased from SIGMA-ALDRICH (San Louis Missouri, USA). […] The pH of all solutions was adjusted to 7.4.
(§3) Results are reported as mean ± S.E. of the values obtained from several cells, each value being the average of measurements in different cells. Data from each experiment were collected from at least seven oocytes. Agonist concentration–response curves were constructed by measuring the maximum response evoked by each agonist concentration. […] The half-inhibitory concentration (IC50) of Homo was estimated by fitting the following equation: A=Amax/(1+10^[[agonist]-logEC50) . Differences among groups were statistically analyzed by ANOVA and Tukey–Kramer post-test, and were considered significant when P < 0.05. Control responses to GABA were obtained before and after each drug application to account for possible shifts in the amplitude of the control current. To determine the time constants for the activation (τact) and deactivation (τdeac) of GABA-, Homo- and Hypo-currents responses, a decay function of the form: I(τ) = exp(− t/τ d) + C, where I is the current and t is time, was fit to the experimental data (Origin 6.0 software; Northampton, MA). Differences between groups were statistically analyzed by ANOVA and a Tukey–Kramer post-test, and were considered significant at the level P < 0.05.

human GABAC-ρ1 receptor [2] = target: T1, human GABAC-ρ1 receptor; test: Two-microelectrode voltage-clamp: currents activated by GABA or SCC-tau in oocytes expressing GABAC-ρ1R; details: for Hill coefficient (nH) / EC50: agonist alone; for Hill coefficient (nH): dose-response relationship; for EC50: Xenopus laevis oocytes clamped at −60 mV; for activation time of the currents (τact) / deactivation time (τdeac): currents activated by GABA, Hypo or Homo
Method: as §1
as §2, with “Oocytes” for “Membrane currents elicited by GABA and SCC-tau were recorded using the two-microelectrode voltage-clamp technique. Oocytes”
Results are reported as mean ± S.E. of the values obtained from several cells, each value being the average of measurements in different cells. Data from each experiment were collected from at least seven oocytes. Agonist concentration–response curves were constructed by measuring the maximum response evoked by each agonist concentration. […] The half-inhibitory concentration (IC50) of Homo was estimated by fitting the following equation: A=Amax/(1+10^[[agonist]-logEC50) . Differences among groups were statistically analyzed by ANOVA and Tukey–Kramer post-test, and were considered significant when P < 0.05. […] Differences between groups were statistically analyzed by ANOVA and a Tukey–Kramer post-test, and were considered significant at the level P < 0.05.

human GABAC-ρ1 receptor [3] = target: T1, human GABAC-ρ1 receptor; test: Voltage-clamp: inhibition of GABA- and SCC-tau-induced currents by TPMPA and picrotoxin
Method: as §1, §2, §3

[4] = receptor activated by 3 µM GABA
[5] = receptor activated by 70 µM Homo
[6] = receptor activated by 3 mM Hypo

T1 sequence (P24046 22-479): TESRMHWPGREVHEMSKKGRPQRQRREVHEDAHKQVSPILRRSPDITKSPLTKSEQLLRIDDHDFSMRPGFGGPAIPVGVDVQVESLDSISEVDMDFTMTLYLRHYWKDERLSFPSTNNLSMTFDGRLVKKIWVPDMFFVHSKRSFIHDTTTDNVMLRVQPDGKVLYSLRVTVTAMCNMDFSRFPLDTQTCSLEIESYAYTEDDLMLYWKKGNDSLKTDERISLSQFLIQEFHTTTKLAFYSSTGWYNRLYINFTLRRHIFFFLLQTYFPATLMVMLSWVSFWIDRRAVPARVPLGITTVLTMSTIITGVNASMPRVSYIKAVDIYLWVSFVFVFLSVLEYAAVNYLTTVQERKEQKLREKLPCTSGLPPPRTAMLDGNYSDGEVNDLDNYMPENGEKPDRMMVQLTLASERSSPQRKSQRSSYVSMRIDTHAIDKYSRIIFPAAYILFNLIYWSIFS

| Hill coefficient (nH) (human GABAC-ρ1 receptor [2]) | activation time of the currents (τact) (human GABAC-ρ1 receptor [2]) [min] | deactivation time (τdeac) (human GABAC-ρ1 receptor [2]) [min] | Compound | EC50 (human GABAC-ρ1 receptor [2]) [µM] | IC50 (human GABAC-ρ1 receptor [3]; [4]) [µM] | IC50 (human GABAC-ρ1 receptor [3]; [5]) [µM] | IC50 (human GABAC-ρ1 receptor [3]; [6]) [µM] | other results |
| --- | --- | --- | --- | --- | --- | --- | --- | --- |
| – | – | – | picrotoxin | – | 100 ± 0.1 | 105 ± 0.3 | 100 ± 0.8 | – |
| – | – | – | O=S(=O)(O)CCO [IA, 2-hydroxyethanesulfonic acid] | – | – | – | – | effect on GABA-induced currents (human GABAC-ρ1 receptor [1]; co-application with GABA, data not shown): did not observe any effect; activation of current (effect on receptor) (human GABAC-ρ1 receptor [2]; compound perfused alone at the concentrations tested): did not show any affect |
| 1.0 | 1.8 ± 0.2 | 6.7 ± 2.2 | NCCCS(=O)(=O)O [Homo, 3-Aminopropane-1-sulfonic acid] | 70 ± 1.1 | – | – | – | IC50 (human GABAC-ρ1 receptor [1]; co-applied with 1.5 µM GABA): 40 ± 1 µM; IC50 (human GABAC-ρ1 receptor [1]; co-applied with 3 µM GABA): 90 ± 1.5 µM; IC50 (human GABAC-ρ1 receptor [1]; co-applied with 6 µM GABA): 410 ± 2.9 µM |
| 1.5 | 1 ± 0.2 | 1.7 ± 0.5 | NCCCC(=O)O [GABA, γ-aminobutyric acid] | – | – | – | – | – |
| – | – | – | CP(=O)(O)C1=CCNCC1 [TPMPA, Methyl(1,2,5,6-tetrahydropyridine-4-yl) phosphinic acid] | – | 1.2 ± 0.1 | 1.4 ± 0.1 | 2 ± 0.2 | – |

| Compound | Hill coefficient (nH) (human GABAC-ρ1 receptor [2]) | activation time of the currents (τact) (human GABAC-ρ1 receptor [2]) [min] | deactivation time (τdeac) (human GABAC-ρ1 receptor [2]) [min] | EC50 (human GABAC-ρ1 receptor [2]) [µM] | IC50 (human GABAC-ρ1 receptor [3]; [4]) [µM] | IC50 (human GABAC-ρ1 receptor [3]; [5]) [µM] | IC50 (human GABAC-ρ1 receptor [3]; [6]) [µM] | other results |
| --- | --- | --- | --- | --- | --- | --- | --- | --- |
| NCCS(=O)O [Hypo, 2-Aminoethanesulfinic acid] | 2.2 | 1.5 ± 0.1 | 3.4 ± 1.1 | 3000 ± 1500 | – | – | – | EC50 (human GABAC-ρ1 receptor [1]; co-applied with 1.5 µM GABA): 87 ± 1.5 µM; EC50 (human GABAC-ρ1 receptor [1]; co-applied with 3 µM GABA): 170 ± 1.7 µM; EC50 (human GABAC-ρ1 receptor [1]; co-applied with 6 µM GABA): 480 ± 2.1 µM |
